Source: doi:10.64898/2025.12.09.693172, “Agonism of mosquito and human transient receptor potential ankyrin 1 (TRPA1) channels by the natural drimane sesquiterpene cinnamodial” (bioRxiv, 2025)

Assays:
HsTRPA1 [1] = target: T1, HsTRPA1 (Homo sapiens, UniProt O75762); assay: two-electrode voltage clamp, Xenopus oocytes; assay type: cell-based
T1 construct: gene TRPA1; cDNA construct from Saito and Tominaga, cRNA injected into Xenopus laevis oocytes; UniProt id printed for the modelled HsTRPA1 (residues 401-1119)
T1 sequence (O75762 whole entry, the tested form may be a part): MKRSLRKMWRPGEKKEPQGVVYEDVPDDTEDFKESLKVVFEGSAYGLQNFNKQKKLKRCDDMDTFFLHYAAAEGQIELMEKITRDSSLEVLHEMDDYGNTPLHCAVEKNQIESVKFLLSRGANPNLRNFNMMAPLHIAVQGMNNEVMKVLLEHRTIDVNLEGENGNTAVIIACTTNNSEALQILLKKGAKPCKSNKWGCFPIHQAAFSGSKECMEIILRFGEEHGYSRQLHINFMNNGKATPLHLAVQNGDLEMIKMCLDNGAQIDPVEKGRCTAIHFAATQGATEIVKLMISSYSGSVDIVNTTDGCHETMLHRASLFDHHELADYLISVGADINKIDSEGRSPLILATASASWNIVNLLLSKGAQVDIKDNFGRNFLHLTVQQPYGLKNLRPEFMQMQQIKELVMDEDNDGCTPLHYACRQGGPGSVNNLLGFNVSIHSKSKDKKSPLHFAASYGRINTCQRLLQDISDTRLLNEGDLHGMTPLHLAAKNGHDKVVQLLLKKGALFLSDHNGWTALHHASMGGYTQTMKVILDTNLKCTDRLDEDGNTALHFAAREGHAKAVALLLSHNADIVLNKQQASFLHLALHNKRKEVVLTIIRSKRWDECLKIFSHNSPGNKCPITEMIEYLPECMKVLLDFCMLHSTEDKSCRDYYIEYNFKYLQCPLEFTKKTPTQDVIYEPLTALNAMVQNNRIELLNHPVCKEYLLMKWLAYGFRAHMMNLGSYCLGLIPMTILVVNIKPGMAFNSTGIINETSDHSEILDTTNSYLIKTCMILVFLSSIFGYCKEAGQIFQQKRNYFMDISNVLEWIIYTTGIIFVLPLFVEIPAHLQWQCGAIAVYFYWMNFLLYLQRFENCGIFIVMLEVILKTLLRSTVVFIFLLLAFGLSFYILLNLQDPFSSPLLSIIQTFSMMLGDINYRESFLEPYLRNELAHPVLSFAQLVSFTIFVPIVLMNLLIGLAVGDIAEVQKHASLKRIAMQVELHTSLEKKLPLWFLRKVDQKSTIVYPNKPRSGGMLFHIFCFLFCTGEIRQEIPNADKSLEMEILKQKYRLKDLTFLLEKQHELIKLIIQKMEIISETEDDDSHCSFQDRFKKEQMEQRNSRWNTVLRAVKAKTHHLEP

HsTRPA1 [2] = target: T1, HsTRPA1; assay: two-electrode voltage clamp, Xenopus oocytes; assay type: cell-based; settings: agonist, ND96 pH 7.5

CC(=O)O[C@@H]1C=C(C=O)[C@](O)(C=O)[C@@]2(C)CCCC(C)(C)[C@H]12 [CDIAL]
EC50 (HsTRPA1 [1]): 2250 nM

COCCCN(C(=O)CCl)c1nc(-c2ccc(OC)cc2)cs1 [JT010]
EC50 (HsTRPA1 [1]): 800 nM

CC1=COC(=O)C2C(C)CCC12 (stereo not drawn) [nepetalactone]
% by which ΔIm at 1000 μM is lower than that of 10 μM CDIAL (HsTRPA1 [2]): 98.8 ± 0.46%
